What all share (assay): MT-4 cell-based antiviral assay, SDM mutant
The test system of experiment [1] is HIV-1 double mutant 100I + 103N. The method, then:
(§1) Compound E-TMC278 was tested in a cell-based assay, using natural host cells of HIV. MT-4 cells (a cell line of human T cells) were infected with HIV-1 (wild type or mutants) and exposed to different concentrations of antiviral compound in the presence of 10% fetal calf serum. Cytotoxicity was determined in parallel with the antiviral activity so that the selectivity of the antiviral effect could be assessed. Active compounds have to penetrate the cell membrane in order to interfere with replication steps inside the cell.
(§2) After four days of incubation at 37° C., the viability of the HIV and mock-infected cells was assessed by an automated tetrazolium-based calorimetric assay. This method enabled the calculation of both the 50% inhibitory concentration for inhibition of viral cytopathicity (IC50), the IC90, and the 50% cytotoxic concentration (CC50). The ratio CC50/IC50, also called the selectivity index, is an indication of the specificity of the antiviral effect. Tested HIV strains included: Wild type (wt) HIV-1; a panel of single and double mutants, obtained by site-directed mutagenesis (SDM), and a panel of clinical isolates, selected for resistance against NNRTIs.
(§3) A limited panel of HIV-1 mutants was constructed using site-directed mutagenesis (SDM) and homologous recombination techniques. […] Nevirapine (NVP) and efavirenz (EFV) were included as controls.

For experiment [2], the system named is HIV-1 double mutant 101E + 103N. Particulars: Human immunodeficiency virus 1, MT4, 96 h. How it is done:
as §1, §2, §3

Experiment [3] has as its system HIV-1 double mutant 103N + 181I. The following applies: Human immunodeficiency virus 1, MT4, 96 h. How it is done: as §1, §2, §3
Experiment [4] relates to HIV-1 mutant 108I. The following applies: Human immunodeficiency virus 1, MT4. The method, then: as §1, §2, §3
The test system of experiment [5] is HIV-1 mutant 188H. The following applies: Human immunodeficiency virus 1, MT4. The method, then:
as §1, §2, §3

For experiment [6], the system named is HIV-1 mutant 225H. The following applies: Human immunodeficiency virus 1, MT4. How it is done:
as §1, §2, §3

Experiment [7] concerns HIV-1 mutant 227C. How it is done:
as §1, §2, §3

[8] abbreviates: Human immunodeficiency virus 1, MT4.

Read-outs that look alike come from different tables or passages of the source.

For `Cc1cc(/C=C/C#N)cc(C)c1Nc1ccnc(Nc2ccc(C#N)cc2)n1` [E-TMC278, (E)-4-[[4-[[4-(2-cyanoethenyl)-2,6-dimethylphenyl]-amino]-2-pyrimidinyl]-amino]-benzonitrile], the IC90 in experiment [1] (setting [8]) was ~16 nM. Moreover, the IC50 in experiment [1] (Human immunodeficiency virus 1, MT4, 96 h, 100I + 103N, MT-4 cells) is ~8 nM; in experiment [1] (Human immunodeficiency virus 1, MT4, read-out: IC50 value, Table 1, HIV RT mutation: 100I + 103N) it was 7.9 nM; in experiment [2] it was 0.5 nM; in experiment [3], 1 nM; in experiment [4] it was 0.3 nM; in experiment [5], 0.2 nM. Also, the IC50 in experiment [6] came out at 0.3 nM; in experiment [7] (setting [8]), 2 nM; in experiment [7] (Human immunodeficiency virus 1, MT4, read-out: IC50 value) it was 2 nM.

By IC90 is commonly meant the concentration needed for an effect of 90%. One may read the IC50 as the concentration at which inhibition is half-maximal.

(Values after patent US8841310B2, “Combinations of a pyrimidine containing NNRTI with RT inhibitors” (Janssen R & D Ireland, priority 2003, dated 2014).)
